As usually defined, the inhibition is the drop in the measured response relative to a control, in per cent. Usually fold induction stands for the signal under treatment as a multiple of the control signal.

In assay [1] the target is T1, His6 tagged human recombinant FABP4 (Homo sapiens, UniProt P15090).
T1 construct: purchased Cayman Chemicals 10009549
The experiment in a line: FABP4 TR-FRET assay: displacement of fluorescent fatty acid BODIPY FL C12. Conditions: inhibition of BODIPY FL C12 binding to His6-FABP4; 1.2 μL of 1.085 mM compound in DMSO per well; triplicates, mean percent inhibition. From the text:
Activity of compounds with FABP4 was profiled using a Terbium (Tb) based time resolved fluorescence energy transfer (TR-FRET) assay. The assay measures the compound mediated displacement of the fluorescent fatty acid BODIPY FL C12 (Thermo Fisher; catalog number D3822) from His6 tagged human recombinant FABP4 (His6-FABP4; Cayman Chemicals, catalog number 10009549) via recording the energy transfer from TB donor molecule on anti-His6-tag antibody to acceptor BODIPY moiety. Briefly, compounds and BODIPY FL C12 were prepared at a concentration of 1.085 mM and 4.2 μM, respectively, in DMSO. 1.2 μL of each compound or DMSO (vehicle control) and 1.2 μL of BODIPY FL C12 were added into the wells of a 384-well black polypropylene plate. His6-FABP4 and Tb anti-His6 antibody were prepared in the assay buffer (25 mM Tris/HCl, pH 7.4, 0.4 mg/ml γ-globulins, 0.010% NP-40, 1 mM DTT) at a concentration of 83 nM and 49.6 nM, respectively. The protein and antibody solutions were then mixed at a ratio of 34:7 (v/v) and incubated on ice for 30 minutes. The assay was initiated by adding 41 μL of the resulting protein/antibody solution into the wells containing the compounds and BODIPY FL C12. The plate was centrifuged and incubated at room temperature for 10 min. The TR-FRET signals were recorded using an EnVision Multilabel plate reader (PerkinElmer; TB excitation 320 nm, BODIPY FL C12 emission 520 nm; TB emission 615 nm). Relative fluorescence ratio (520 nm*10,000/615 nm) were used to calculate the compound mediated inhibition of BODIPY C12 FL fatty acid binding to FABP4. The compounds were tested in triplicates and the results were represented as mean percent inhibition (compound*100/DMSO)±standard deviation (SD). Glucose consumption and FABP4 inhibition is shown below in Table 3 below. The compounds showing no inhibition of activity in the TR-FRET assay are marked as N.A. N.D. stands for “not determined”.

The test system of assay [2] is differentiated 3T3-L1 mouse adipocyte cells. Briefly: Adipocyte glucose consumption in differentiated 3T3-L1 cells (colorimetric glucose assay of the medium). Format: cell-based. Conditions: 3T3-L1, 24 h, compound 10 μM, loss of glucose from culture medium, mean fold change (compound/DMSO). As to the method:
Activity of compounds on adipocyte glucose consumption was tested in differentiated 3T3-L1 mouse adipocyte cells. 3T3-L1 preadipocytes (ATCC) were routinely cultured in a growth medium composed of DMEM high-glucose (Sigma), 10% FBS (Gibco), 10 U/ml penicillin and 10 μg/ml streptomycin (P/S; Gibco). To induce adipogenic differentiation, a confluent layer of 3T3-L1 cells were incubated with the growth medium containing 2 μM rosiglitazone, 1 μM dexamethasone, 500 μM IBMX, and 1 μg/ml insulin (Sigma). Forty-eight (48) hours later (on day 2) and on days 4 and 6, medium of the cells was replaced with fresh medium containing 1 μg/ml insulin. On days 8 and 10, the medium was refreshed with regular growth medium and addition of insulin was omitted. On day 11, medium of the cells were 10 replaced with fresh medium containing either the indicated compounds (10 μM) or the vehicle in which the compounds were dissolved (DMSO). The final concentration of DMSO was 0.1% (v/v). Growth medium containing 0.1% DMSO was incubated in culture wells containing no cells and used as control. 24 hours later, medium was harvested and subjected to centrifugation at 10,000 g for 5 min. Glucose concentration in the supernatants was determined using a 15 colorimetric assay (Glucose Assay Kit I, Eton Biosciences). Glucose consumption in compound and vehicle treated cells was measured as loss of glucose from the culture medium and represented as mean fold change (compound/DMSO)±standard deviation (SD).

T1 sequence (P15090 whole entry): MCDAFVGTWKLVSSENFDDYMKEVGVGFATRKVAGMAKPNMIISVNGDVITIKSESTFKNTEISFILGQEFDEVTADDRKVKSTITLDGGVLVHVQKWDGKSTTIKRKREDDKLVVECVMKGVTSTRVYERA

Regarding `CCCCc1ccc2nc(OCC(=O)O)cc(-c3cccc(C(N)=O)c3)c2c1` [2-{[6-butyl-4-(3-carbamoylphenyl)quinolin-2-yl]oxy}acetic acid], in assay [1], the inhibition at 1085 µM (stock) was 54.5%. For the same molecule, the fold induction at 10 µM in assay [2] is 1.15.
In the same order, the values of `CCCCCCc1ccc2nc(N(C)C(C)CC(=O)O)cc(-c3cccc(C#N)c3)c2c1` (stereo not drawn) [3-{[4-(3-cyanophenyl)-6-hexylquinolin-2-yl](methyl)amino}butanoic acid] are 77.9% and 1.03.
Taken in the same sequence, the figures for `CCCCCCc1ccc2nc(N3CC(C(=O)O)CC3=O)cc(-c3ccccc3)c2c1` (stereo not drawn) [1-(6-hexyl-4-phenylquinolin-2-yl)-5-oxopyrrolidine-3-carboxylic acid] were 6.12% and 1.11.
In the same order, the values of `COc1ccc2nc(N(C)CC(=O)O)cc(-c3ccccc3)c2c1` [2-[(6-methoxy-4-phenylquinolin-2-yl)(methyl)amino]acetic acid] are 101% and 1.12.
With `CN(CC(=O)O)c1cc(-c2ccccc2)c2cc(CCc3cnccn3)ccc2n1` [2-[methyl({4-phenyl-6-[2-(pyrazin-2-yl)ethyl]quinolin-2-yl})amino]acetic acid], the inhibition at 1085 µM (stock) in assay [1] amounted to 4.98%. In assay [2], the fold induction at 10 µM worked out at 1.28.
Taken in the same sequence, the figures for `CN(CCc1ccc2nc(N(C)CC(=O)O)cc(-c3ccccc3)c2c1)c1ccccc1` [2-[methyl(6-{2-[methyl(phenyl)amino]ethyl}-4-phenylquinolin-2-yl)amino]acetic acid] were 55.9% and 1.17.
Regarding `CN(CC(=O)O)c1cc(-c2ccccc2)c2ccc(Br)cc2n1` [2-[(7-bromo-4-phenylquinolin-2-yl)(methyl)amino]acetic acid], in assay [1], the inhibition at 1085 µM (stock) came to 84.5%. The fold induction at 10 µM in assay [2] came out at 1.19.
Taken in the same sequence, the figures for `CCc1ccc2nc(N(C)CC(=O)O)cc(-c3cccc(C(N)=O)c3)c2c1` [2-{[4-(3-carbamoylphenyl)-6-ethylquinolin-2-yl](methyl)amino}acetic acid] were 78% and 1.07.
Regarding `CCCCCCc1ccc2nc(N(CC)CC(=O)O)cc(-c3ccc(F)cc3)c2c1` [2-{ethyl[4-(4-fluorophenyl)-6-hexylquinolin-2-yl]amino}acetic acid], the inhibition at 1085 µM (stock) in assay [1] stood at 78.3%. Moreover, in assay [2], the fold induction at 10 µM was 1.27.
Taken in the same sequence, the figures for `CCCCCCc1ccc2nc(N(C)Cc3nn[nH]n3)cc(-c3ccccc3)c2c1` [6-hexyl-N-methyl-4-phenyl-N-[(2H-1,2,3,4-tetrazol-5-yl)methyl]quinolin-2-amine] were 37.8% and 1.52.
In the same order, the values of `CCCCc1ccc2nc(N(C)CC(=O)O)cc(-c3cccc(C)c3)c2c1` [2-{[6-butyl-4-(3-methylphenyl)quinolin-2-yl](methyl)amino}acetic acid] are 82.4% and 1.4.
Taken in the same sequence, the figures for `CCCCc1ccc2nc(N3CCCCC3)cc(-c3ccccc3)c2c1` [6-butyl-4-phenyl-2-(piperidin-1-yl)quinoline] were 56.5% and 0.99.
Take `CCc1ccc2nc(N(C)CC(=O)O)cc(-c3ccccc3)c2c1` [2-[(6-ethyl-4-phenylquinolin-2-yl)(methyl)amino]acetic acid]: the inhibition at 1085 µM (stock) in assay [1] was determined as 103%. Also, in assay [2], the fold induction at 10 µM amounted to 1.12.
In the same order, the values of `CCCc1ccc2nc(N(C)CC(=O)O)cc(-c3cccc(C(N)=O)c3)c2c1` [2-{[4-(3-carbamoylphenyl)-6-propylquinolin-2-yl](methyl)amino}acetic acid] are 48% and 1.07.
In the same order, the values of `CN(CC(=O)O)c1cc(-c2cccc(C#N)c2)c2cc(Br)ccc2n1` [2-{[6-bromo-4-(3-cyanophenyl)quinolin-2-yl](methyl)amino}acetic acid] are 91.1% and 1.16.

(Values after patent US20230183179A1, “NOVEL CELL METABOLISM MODULATING COMPOUNDS AND USES THEREOF” (CRESCENTA BIOSCIENCES, priority 2020, published 2023).)
